For assay [1], the target named is T1, human GLP-1 receptor (hGLP-1R) (Homo sapiens, UniProt P43220).
T1 construct: expressed in transfected cells; crude membranes
Put plainly: [125I]-GLP-1 binding, SPA with membranes of HEK293 cells expressing hGLP-1R.

For assay [2], the target named is T2, human GIP receptor (hGIPR) (Homo sapiens, UniProt P48546).
T2 construct: expressed in transfected cells; crude membranes
T2 sequence (P48546 22-466): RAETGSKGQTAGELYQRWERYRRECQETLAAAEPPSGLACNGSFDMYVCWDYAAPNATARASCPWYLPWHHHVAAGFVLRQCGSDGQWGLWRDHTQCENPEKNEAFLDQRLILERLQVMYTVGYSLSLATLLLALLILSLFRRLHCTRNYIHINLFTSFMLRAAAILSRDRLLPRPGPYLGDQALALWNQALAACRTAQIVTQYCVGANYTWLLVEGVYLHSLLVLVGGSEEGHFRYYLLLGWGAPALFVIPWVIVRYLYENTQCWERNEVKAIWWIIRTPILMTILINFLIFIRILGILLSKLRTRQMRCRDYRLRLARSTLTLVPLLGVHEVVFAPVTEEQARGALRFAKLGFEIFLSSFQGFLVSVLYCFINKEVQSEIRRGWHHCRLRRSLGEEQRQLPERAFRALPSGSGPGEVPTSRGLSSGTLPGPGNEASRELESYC
Nature of the assay: [125I]-GIP binding, SPA with membranes of CHO cells expressing hGIPR.

A further assay addresses hGLP-1R (Homo sapiens, UniProt P43220). Put plainly: Functional cAMP formation (HTRF) in HEK-293 clonal cells expressing hGLP-1R, 0.1% bovine casein, without or with 1.0% human serum albumin. To be noted: for Emax: percent of maximal response to GLP-1(7-36)NH2. It is filed as cell-based. More on the design: expressed in transfected cells. In outline:
(§1)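 Readings of the HTRF 665/620 nm ratio, which falls as cAMP rises, were converted to nM cAMP using a standard curve after 30 min peptide exposure at 37° C.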

The next assay concerns the target T3, hGCGR (Homo sapiens, UniProt P47871).
T3 construct: expressed in transfected cells
Nature of the assay: Functional cAMP formation (HTRF) in HEK-293 clonal cells expressing hGCGR, 0.1% bovine casein, without or with 1.0% human serum albumin. It is filed as cell-based. In outline: as §1
Background: cAMP levels reflect the balance of adenylyl cyclase and phosphodiesterase activity.

For the next assay, the target named is T4, hGIPR (Homo sapiens, UniProt P48546).
T4 construct: expressed in transfected cells
T4 sequence (P48546 22-466): T2 sequence (P48546 22-466)
Nature of the assay: Functional cAMP formation (HTRF) in HEK-293 clonal cells expressing hGIPR, 0.1% bovine casein, without or with 1.0% human serum albumin. It is filed as cell-based. To be noted: 37° C.; for EC50: geometric mean; for Emax: read-out: hGIPR Emax, % ± SEM. An outline of the steps: as §1

Setting [3] is: human GLP-1R, geometric mean (SEM, n), read-out: Binding Affinity Ki, nM (SEM, n) hGLP-1R.
Setting [4] is: human GIPR, geometric mean (SEM, n), read-out: Binding Affinity Ki, nM (SEM, n) hGIPR.

Each structure is given as a SMILES string. Read-outs that look alike come from different tables or passages of the source.

The record followed here is patent US20230265151A1, “GIP/GLP1 CO-AGONIST COMPOUNDS” (priority 2020, published 2023).

One may read the Ki as the dissociation constant of the complex between target and ligand, obtained from inhibition or displacement. By EC50 is commonly meant the midpoint of the concentration-response curve. Usually Emax stands for the size of the effect at its maximum, as opposed to the concentration needed.

T1 sequence (P43220 24-463): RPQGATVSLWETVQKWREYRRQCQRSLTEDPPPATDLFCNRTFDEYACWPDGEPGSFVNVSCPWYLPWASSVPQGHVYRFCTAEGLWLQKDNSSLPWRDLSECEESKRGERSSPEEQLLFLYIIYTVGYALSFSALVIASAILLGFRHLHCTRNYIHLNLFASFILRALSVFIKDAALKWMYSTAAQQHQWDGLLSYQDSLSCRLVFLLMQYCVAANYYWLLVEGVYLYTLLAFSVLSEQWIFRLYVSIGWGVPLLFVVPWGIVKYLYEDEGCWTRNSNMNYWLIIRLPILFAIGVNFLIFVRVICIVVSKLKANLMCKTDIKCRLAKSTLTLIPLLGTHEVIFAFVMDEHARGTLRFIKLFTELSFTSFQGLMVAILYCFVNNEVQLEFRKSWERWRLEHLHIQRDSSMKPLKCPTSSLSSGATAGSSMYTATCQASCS
hGLP-1R, sequence (P43220 24-463): as above
T3 sequence (P47871 26-477): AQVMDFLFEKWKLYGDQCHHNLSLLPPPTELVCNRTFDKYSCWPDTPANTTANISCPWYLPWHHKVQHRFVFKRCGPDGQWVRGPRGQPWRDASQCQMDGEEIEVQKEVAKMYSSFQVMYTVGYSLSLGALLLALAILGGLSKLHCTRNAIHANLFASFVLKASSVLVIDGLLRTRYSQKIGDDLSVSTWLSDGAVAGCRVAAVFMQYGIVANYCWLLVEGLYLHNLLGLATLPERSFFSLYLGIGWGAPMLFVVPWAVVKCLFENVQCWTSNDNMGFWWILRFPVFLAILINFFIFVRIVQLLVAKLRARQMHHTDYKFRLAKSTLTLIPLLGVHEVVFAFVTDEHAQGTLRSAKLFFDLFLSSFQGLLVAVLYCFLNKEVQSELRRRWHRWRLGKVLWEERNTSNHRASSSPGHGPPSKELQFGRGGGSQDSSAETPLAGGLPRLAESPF

Regarding `CCCCCCCCCCCC(=O)N[C@@H](CCC(=O)NCCOCCOCC(=O)NCCOCCOCC(=O)NCCCC[C@H](NC(=O)[C@H](CO)NC(=O)[C@@H]1CCCN1C(=O)[C@@H]1CCCN1C(=O)[C@@H]1CCCN1C(=O)[C@H](C)NC(=O)CNC(=O)[C@H](CO)NC(=O)[C@H](CO)NC(=O)[C@@H]1CCCN1C(=O)CNC(=O)CNC(=O)[C@H](CCC(=O)O)NC(=O)[C@@H](NC(=O)[C@H](CC(C)C)NC(=O)[C@](C)(Cc1ccc(O)cc1)NC(=O)[C@@H](CCC(=O)O)NC(=O)[C@@H](NC(=O)[C@H](Cc1ccccc1)NC(=O)[C@H](CCC(=O)O)NC(=O)C(C)(C)NC(=O)[C@H](CCC(N)=O)NC(=O)[C@H](C)NC(=O)[C@H](CCCCNC(=O)COCCOCCNC(=O)COCCOCCNC(=O)CC[C@H](NC(=O)CCCCCCCCCCC)C(=O)O)NC(=O)[C@H](CCCN)NC(=O)[C@H](CC(=O)O)NC(=O)[C@H](CC(C)C)NC(=O)[C@](C)(CC(C)C)NC(=O)[C@@H](NC(=O)[C@H](CO)NC(=O)[C@H](Cc1ccncc1)NC(=O)[C@H](CC(=O)O)NC(=O)[C@H](CO)NC(=O)[C@@H](NC(=O)[C@](C)(Cc1ccccc1F)NC(=O)[C@@H](NC(=O)CNC(=O)[C@H](CCC(=O)O)NC(=O)C(C)(C)NC(=O)[C@@H](N)Cc1ccc(O)cc1)[C@@H](C)O)[C@@H](C)O)[C@@H](C)CC)[C@@H](C)CC)[C@@H](C)CC)C(N)=O)C(=O)O` [Example 141], the Ki turned out to be 0.194 nM in assay [1] (setting [3]) and 0.0291 nM in assay [2] (setting [4]). For the same compound, the EC50 on hGLP-1R (0.1% bovine casein and 1.0% human serum albumin, 37° C., geometric mean, read-out: hGLP-1R EC50, nM (SEM, n)) is 5.78 nM; at hGCGR (0.1% bovine casein and 1.0% human serum albumin, 37° C., geometric mean, read-out: hGCGR EC50, nM (SEM, n)), over 9950 nM; on hGCGR (cAMP, incubated at 37° C., 0.1% bovine casein (no human serum albumin), geometric mean, read-out: hGCGR EC50, nM (SEM, n)) it was over 9950 nM; at hGIPR (0.1% bovine casein and 1.0% human serum albumin, read-out: hGIPR EC50, nM (SEM, n)) it was 0.379 nM. The Emax on hGLP-1R (HEK293, 0.1% bovine casein and 1.0% human serum albumin, 37° C., read-out: hGLP-1R Emax, % ± SEM) came out at 115 ± 2.04%; on hGIPR (HEK293, 0.1% bovine casein and 1.0% human serum albumin, percent of maximal response to GIP(1-42)NH2), 96 ± 7.42%; at hGIPR (HEK293, percent of maximal response to GIP(1-42)NH2, 0.1% bovine casein, arithmetic mean), 98.8 ± 1.09%.
For `CCCCCCCCCCCC(=O)N[C@@H](CCC(=O)NCCOCCOCC(=O)NCCOCCOCC(=O)NCCCC[C@H](NC(=O)[C@H](CO)NC(=O)[C@@H]1CCCN1C(=O)[C@@H]1CCCN1C(=O)[C@@H]1CCCN1C(=O)[C@H](C)NC(=O)CNC(=O)[C@H](CO)NC(=O)[C@H](CO)NC(=O)[C@@H]1CCCN1C(=O)CNC(=O)CNC(=O)[C@H](CCC(=O)O)NC(=O)[C@@H](NC(=O)[C@H](CC(C)C)NC(=O)[C@](C)(Cc1ccc(O)cc1)NC(=O)[C@@H](CCC(=O)O)NC(=O)[C@@H](NC(=O)[C@H](Cc1ccccc1)NC(=O)[C@H](CCC(=O)O)NC(=O)C(C)(C)NC(=O)[C@H](CCC(N)=O)NC(=O)[C@H](C)NC(=O)[C@H](CCCCNC(=O)COCCOCCNC(=O)COCCOCCNC(=O)CC[C@H](NC(=O)CCCCCCCCCCC)C(=O)O)NC(=O)[C@H](CCCN)NC(=O)[C@H](CC(=O)O)NC(=O)[C@H](CC(C)C)NC(=O)[C@](C)(CC(C)C)NC(=O)[C@@H](NC(=O)C(C)(C)NC(=O)[C@H](Cc1ccncc1)NC(=O)[C@H](CC(=O)O)NC(=O)[C@H](CO)NC(=O)[C@@H](NC(=O)[C@](C)(Cc1ccccc1F)NC(=O)[C@@H](NC(=O)CNC(=O)[C@H](CCC(=O)O)NC(=O)C(C)(C)NC(=O)[C@@H](N)Cc1ccc(O)cc1)[C@@H](C)O)[C@@H](C)O)[C@@H](C)CC)[C@@H](C)CC)[C@@H](C)CC)C(N)=O)C(=O)O` [Example 324], the Ki in assay [1] (setting [3]) came to 0.168 nM; in assay [2] (setting [4]), 0.0163 nM. Further, the Emax came out at 99.4% on hGLP-1R (HEK293, cAMP, 37° C., 0.1% bovine casein and 1.0% human serum albumin, read-out: hGLP-1R Emax, % ± SEM); 97.6% on hGLP-1R (HEK293, cAMP, 37° C., 0.1% bovine casein, arithmetic mean, read-out: hGLP-1R Emax, % ± SEM); 85.4% on hGIPR (HEK293, cAMP, 0.1% bovine casein and 1.0% human serum albumin, percent of maximal response to GIP(1-42)NH2). Besides, the EC50 was 0.0647 nM at hGLP-1R (cAMP, 37° C., 0.1% bovine casein (no human serum albumin), geometric mean, read-out: hGLP-1R EC50, nM (SEM, n)); 4.38 nM at hGLP-1R (cAMP, 37° C., 0.1% bovine casein and 1.0% human serum albumin, geometric mean (SEM, n), read-out: hGLP-1R EC50, nM (SEM, n)); over 9950 nM on hGCGR (cAMP, 37° C., 0.1% bovine casein (no human serum albumin), geometric mean, read-out: hGCGR EC50, nM (SEM, n)); over 9950 nM at hGCGR (cAMP, 37° C., 0.1% bovine casein and 1.0% human serum albumin, geometric mean (SEM, n), read-out: hGCGR EC50, nM (SEM, n)); 0.00632 nM at hGIPR (cAMP, 0.1% bovine casein (no human serum albumin), read-out: hGIPR EC50, nM (SEM, n)).
Regarding `CC[C@H](C)[C@H](NC(=O)[C@H](CC(C)C)NC(=O)[C@](C)(Cc1ccc(O)cc1)NC(=O)[C@@H](CCC(=O)O)NC(=O)[C@@H](NC(=O)[C@H](Cc1ccccc1)NC(=O)[C@H](CCCCNC(=O)COCCOCCNC(=O)CC[C@H](NC(=O)CCCCCCCCCOc1ccc(C(=O)O)cc1)C(=O)O)NC(=O)C(C)(C)NC(=O)[C@H](CCC(N)=O)NC(=O)[C@H](C)NC(=O)[C@H](CCCCNC(=O)COCCOCCNC(=O)CC[C@H](NC(=O)CCCCCCCCCOc1ccc(C(=O)O)cc1)C(=O)O)NC(=O)[C@H](CCCN)NC(=O)[C@H](CC(=O)O)NC(=O)[C@H](CC(C)C)NC(=O)[C@](C)(CC(C)C)NC(=O)[C@@H](NC(=O)C(C)(C)NC(=O)[C@H](Cc1ccncc1)NC(=O)[C@H](CC(=O)O)NC(=O)[C@H](CO)NC(=O)[C@@H](NC(=O)[C@](C)(Cc1ccccc1F)NC(=O)[C@@H](NC(=O)CNC(=O)[C@H](CCC(=O)O)NC(=O)C(C)(C)NC(=O)[C@@H](N)Cc1ccc(O)cc1)[C@@H](C)O)[C@@H](C)O)[C@@H](C)CC)[C@@H](C)CC)C(=O)N[C@@H](CCC(=O)O)C(=O)NCC(=O)NCC(=O)N1CCC[C@H]1C(=O)N[C@@H](CO)C(=O)N[C@@H](CO)C(=O)NCC(=O)N[C@@H](C)C(=O)N1CCC[C@H]1C(=O)N1CCC[C@H]1C(=O)N1CCC[C@H]1C(=O)N[C@@H](CO)C(N)=O` [Example 360], the results for the Ki in assay [1] and in assay [2] were 0.673 nM and 0.046 nM, respectively. Moreover, the Emax on hGLP-1R (HEK293, read-out: hGLP-1R Emax, % ± SEM, cAMP, 37° C., 0.1% bovine casein and 1.0% human serum albumin) was 97.1%; on hGLP-1R (HEK293, read-out: hGLP-1R Emax, % ± SEM, cAMP, 37° C., 0.1% bovine casein, arithmetic mean), 89.8%. Also, the EC50 at hGLP-1R (hGLP-1R EC50, nM (SEM, n), cAMP, 37° C., 0.1% bovine casein (no human serum albumin), geometric mean) is 0.301 nM; on hGCGR (hGCGR EC50, nM (SEM, n), cAMP, 37° C., 0.1% bovine casein (no human serum albumin), geometric mean), over 9950 nM; at hGCGR (hGCGR EC50, nM (SEM, n), cAMP, 37° C., 0.1% bovine casein and 1.0% human serum albumin, geometric mean (SEM, n)), over 9950 nM; at hGIPR (hGIPR EC50, nM (SEM, n), cAMP, 0.1% bovine casein (no human serum albumin)) it was 0.0121 nM.
